Data taken from US20050215520A1, “Complex of organic medicines and beta-cyclodextrin derivatives and its preparing process” (priority 2002, published 2005).
Like-named read-outs stand apart in the source and are kept apart here.

Key:
[1] = Critical mole ratio or critical mass ratio of medicines and beta-cyclodextrin derivative (Table 1, examples); format: physicochemical
Procedure: The critical mole ratio or critical mass ratio in the present invention refers to the mole ratio and mass ratio when complex of organic medicine and beta-cyclodextrin derivatives prepared with the method of this invention is dissolved exactly in water of specified amount to form stable aqueous solution.
The critical value of organic medicine and beta-cyclodextrin derivatives in the present invention, may be determined with the undermentioned unit test method.
(§1) All kinds of mole ratio and mass ratio of the medicine and beta-cyclodextrin derivative is made into complex with expanding loose body according to the method of the present invention, then the set water is added into the a variety of compounding ratio of complex, and by observing properties of the solution, the compounding ratio of exactly dissolving in water and with stable property, acts as the critical mole ratio or critical mass ratio of the present invention.
The critical mole ratio and critical mass ratio in the present invention may be determined with the undermentioned saturated solution method.
Weighing accurately medicine, and placing in the container, and gradually adding beta-cyclodextrin aqueous solution metered accurately with agitation, until the medicine is dissolved exactly and completely in this aqueous solution. Calculate both mass number here and convert it to mole number. Repeat the above-mentioned test, and get the mean mole number of repeated test, and calculate critical mole ratio with the undermentioned formula: Critical mole ratio of medicine=mean mole number of beta-cyclodextrin/mean mole number of medicine

[2] = Critical value of complex by unit test method (complexes of various compounding ratio dissolved in set water, solution properties observed); format: physicochemical; settings: hydroxide propyl beta-cyclodextrin to medicine
Procedure: as §1, with “The critical value of organic medicine and beta-cyclodextrin derivatives in the present invention, may be determined with the undermentioned unit test method. All” for “All”

[3] = medicine alone; cited from earlier work
plasmodium = test: Medicine efficacy on killing plasmodium in mice infected plasmodium; format: in vivo; settings: for ED90 comparison p.o./iv: ED90 of original medicine p.o. relative to its complex iv (complex = 1); for ED50: read-out: efficacy (killing) ED50
[4] = Critical mole ratio by saturated solution method; format: physicochemical; settings: 40% hydroxide propyl beta-cyclodextrin aqueous solution, mean of 3 tests
Procedure: The critical mole ratio and critical mass ratio in the present invention may be determined with the undermentioned saturated solution method. Weighing accurately medicine, and placing in the container, and gradually adding beta-cyclodextrin aqueous solution metered accurately with agitation, until the medicine is dissolved exactly and completely in this aqueous solution. Calculate both mass number here and convert it to mole number. Repeat the above-mentioned test, and get the mean mole number of repeated test, and calculate critical mole ratio with the undermentioned formula: Critical mole ratio of medicine=mean mole number of beta-cyclodextrin/mean mole number of medicine For example, critical mole ratio of Artemisinin and hydroxide propyl beta-cyclodextrin is measured with the undermentioned method: Weight accurately Artemisinin, and grind in tissue grinding device, and place in beaker, and gradually add 40% hydroxide propyl beta-cyclodextrin aqueous solution metered accurately while agitation, until Artemisinin is dissolved exactly and completely in this aqueous solution. Calculate both mass number here and convert it to mole number.

[5] = beta-cyclodextrin derivative (hydroxide propyl beta-cyclodextrin in the examples) to medicine, complex dissolves exactly in water to stable solution

Row | Molecule | Critical value mole ratio [1, 5] | Critical value Mass ratio [1, 5] | further results
1 | CC1(C)S[C@@H]2[C@H](NC(=O)[C@H](N)c3ccccc3)C(=O)N2[C@H]1C(=O)O [Ampicilline] | 3 | – | –
2 | C[C@@H]1CC[C@H]2[C@@H](C)C(=O)O[C@@H]3O[C@@]4(C)CC[C@@H]1[C@]32OO4 [Artemisinin] | 5 | – | critical mass ratio of complex [2]: about 28; critical mole ratio of complex [2]: about 5; water solubility of the medicine [3]: hardly water-soluble; ED90 comparison p.o./iv (plasmodium): 2.13; ED50 (plasmodium; mice infected plasmodium, route of administration po.): 19 mg/kg; critical mole ratio [4]: about 5
3 | C[C@H]1[C@H](OC(=O)CCC(=O)O)O[C@@H]2O[C@@]3(C)CC[C@H]4[C@H](C)CC[C@@H]1[C@@]24OO3 [Artesunate] | 3 | – | ED90 comparison p.o./iv (plasmodium): 1.88; ED50 (plasmodium; Plasmodium, po): 9.96 mg/kg
4 | CC[C@H]1OC(=O)[C@H](C)[C@@H](O[C@H]2C[C@@](C)(OC)[C@@H](O)[C@H](C)O2)[C@H](C)[C@@H](O[C@@H]2O[C@H](C)C[C@H](N(C)C)[C@H]2O)[C@](C)(O)C[C@@H](C)CN(C)[C@H](C)[C@@H](O)[C@]1(C)O [Azithromycin] | 16 | – | –
5 | CN(Cc1cc(Br)cc(Br)c1N)C1CCCCC1 [Bromhexine] | 3 | – | –
6 | CS(=O)(=O)OCCCCOS(C)(=O)=O [Busulfan] | 5 | – | –
7 | O=C(O)c1cn(C2CC2)c2cc(N3CCNCC3)c(F)cc2c1=O [Ciprofloxacin] | 5 | – | –
8 | CC[C@H]1OC(=O)[C@H](C)[C@@H](O[C@H]2C[C@@](C)(OC)[C@@H](O)[C@H](C)O2)[C@H](C)[C@@H](O[C@@H]2O[C@H](C)C[C@H](N(C)C)[C@H]2O)[C@](C)(OC)C[C@@H](C)C(=O)[C@H](C)[C@@H](O)[C@]1(C)O [Clarithromycin] | 18 | – | –
9 | Clc1ccccc1C(c1ccccc1)(c1ccccc1)n1ccnc1 [Clotrimazole] | 4 | – | –
10 | CN1C(=O)CN=C(c2ccccc2)c2cc(Cl)ccc21 [Diazepam] | – | – | Critical value mole ratio [1]: 3
11 | CC(CN1c2ccccc2S(=O)(=O)c2ccccc21)N(C)C (centres unmarked) [Dioxopromethazine] | – | 2 | –
12 | CC[C@H]1OC(=O)[C@H](C)[C@@H](O[C@H]2C[C@@](C)(OC)[C@@H](O)[C@H](C)O2)[C@H](C)[C@@H](O[C@@H]2O[C@H](C)C[C@H](N(C)C)[C@H]2O)[C@](C)(O)C[C@@H](C)C(=O)[C@H](C)[C@@H](O)[C@]1(C)O [Erythromycin] | 6 | – | –
13 | Clc1ccc2c(c1)C(c1ccccc1)=NCc1nncn1-2 [Estazolam] | – | 20 | –
14 | COc1cc([C@@H]2c3cc4c(cc3[C@@H](O[C@@H]3O[C@@H]5CO[C@@H](C)O[C@H]5[C@H](O)[C@H]3O)[C@H]3COC(=O)[C@H]23)OCO4)cc(OC)c1O [Etoposide] | 10 | – | –
15 | CC(C)Cc1ccc(C(C)C(=O)O)cc1 (centres unmarked) [Ibuprofen] | – | 8 | –
16 | CC(=O)N1CCN(c2ccc(OCC3COC(Cn4ccnc4)(c4ccc(Cl)cc4Cl)O3)cc2)CC1 (centres unmarked) [Ketoconazole] | 3 | – | –
17 | CCN1C[C@]2(OC(=O)c3ccccc3NC(C)=O)CC[C@H](OC)[C@@]34[C@@H]2C[C@@H]([C@@H]13)[C@@]1(O)C[C@H](OC)[C@H]2C[C@@H]4[C@]1(O)[C@H]2OC [Lappaconitine] | 2 | – | –
18 | O=C1Nc2ccc(Cl)cc2C(c2ccccc2Cl)=NC1O (centres unmarked) [Lorazepam] | 3 | – | –
19 | CC[C@H](C)C(=O)O[C@H]1C[C@@H](C)C=C2C=C[C@H](C)[C@H](CC[C@@H]3C[C@@H](O)CC(=O)O3)[C@H]21 [Lovastatin] | 26 | – | –

Row | Molecule | Critical value mole ratio [1, 5] | Critical value Mass ratio [1, 5] | further results
20 | Cc1ncc([N+](=O)[O-])n1CCO [Metronidazole] | – | 9 | –
21 | Clc1ccc(COC(Cn2ccnc2)c2ccc(Cl)cc2Cl)c(Cl)c1 (centres unmarked) [Miconazole] | 6 | – | –
22 | CN1C(C(=O)Nc2ccccn2)=C(O)c2ccccc2S1(=O)=O [Piroxicam] | – | 15 | –
23 | C[C@]12CC[C@H](O)CC1=CC[C@@H]1[C@@H]2CC[C@]2(C)C(=O)CC[C@@H]12 [Prasterone] | 3 | – | –
24 | COc1cc2c(cc1OC)[C@@H]1Cc3ccc(OC)c(OC)c3CN1CC2 [Rotundine] | 1 | – | –
25 | CC[C@H]1OC(=O)[C@H](C)[C@@H](O[C@H]2C[C@@](C)(OC)[C@@H](O)[C@H](C)O2)[C@H](C)[C@@H](O[C@@H]2O[C@H](C)C[C@H](N(C)C)[C@H]2O)[C@](C)(O)C[C@@H](C)/C(=N\OCOCCOC)[C@H](C)[C@@H](O)[C@]1(C)O [Roxithromycin] | 18 | – | –
26 | CC(C)CC(N(C)C)C1(c2ccc(Cl)cc2)CCC1 (centres unmarked) [Sibutramine] | – | 2 | –
27 | CCCc1nn(C)c2c(=O)[nH]c(-c3cc(S(=O)(=O)N4CCN(C)CC4)ccc3OCC)nc12 [Sildenafil] | 2 | – | –
28 | COc1cc(Cc2cnc(N)nc2N)cc(OC)c1OC [TMP] | 3 | – | –
29 | CC/C(=C(\c1ccccc1)c1ccc(OCCN(C)C)cc1)c1ccccc1 [Tamoxifen] | 2 | – | –
30 | CC(=O)O[C@H]1C(=O)[C@@]2(C)[C@H]([C@H](OC(=O)c3ccccc3)[C@]3(O)C[C@H](OC(=O)[C@H](O)[C@@H](NC(=O)c4ccccc4)c4ccccc4)C(C)=C1C3(C)C)[C@]1(OC(C)=O)CO[C@@H]1C[C@@H]2O [Taxol] | 100 | – | –
31 | CCS(=O)(=O)CCn1c([N+](=O)[O-])cnc1C [Tinidazole] | – | 6.5 | –
32 | Cc1ccc(-c2nc3ccc(C)cn3c2CC(=O)N(C)C)cc1 [Zolpidem] | 2 | – | –
33 | CC1(C)C2CCC1(C)C(O)C2 (centres unmarked) [borneol] | – | 6 | –
34 | Cn1c(=O)c2c(ncn2C)n(C)c1=O [caffein] | – | 4 | –
35 | CC12CCC(CC1=O)C2(C)C (centres unmarked) [camphor] | – | 8 | –
36 | CC(C)(O)C(Cl)(Cl)Cl [chlorbutanol] | – | 6 | –
37 | OC(CCCN1CCCCC1)(c1ccccc1)c1ccccc1 [difenidol] | 1 | – | –
38 | NC(N)=Nc1nc(CSCCC(N)=NS(N)(=O)=O)cs1 [famotidine] | – | 9 | –

Row | Molecule | Critical value mole ratio [1, 5] | Critical value Mass ratio [1, 5] | further results
39 | Cc1ccc(S(=O)(=O)NC(=O)NN2CC3CCCC3C2)cc1 (centres unmarked) [gliclazide] | 2 | – | –
40 | CN1CCC(=C2c3ccccc3CC(=O)c3sccc32)CC1 [ketotifen] | – | 4 | –
41 | Cc1nc(C)c(C)nc1C [ligustrazine] | – | 12 | –
42 | O=C(O)CCCC[C@@H]1CCSS1 [lipoic acid] | 1 | – | –
43 | CC1CCC(C(C)C)C(O)C1 (centres unmarked) [menthol] | 2 | – | –
44 | CCOC(=O)[N-]c1cn(N2CCOCC2)n[o+]1 [molsidomine] | – | 11 | –
45 | CCn1cc(C(=O)O)c(=O)c2cc(F)c(N3CCNCC3)cc21 [norfloxacin] | – | 30 | –
46 | CC(=O)Nc1ccc(O)cc1 [paracetamol] | – | 3 | –
47 | C[C@]12C=CC(=O)C=C1CC[C@@H]1[C@@H]2C(=O)C[C@@]2(C)[C@H]1CC[C@]2(O)C(=O)CO [prednisone] | 4 | – | –
48 | CC(=O)S[C@@H]1CC2=CC(=O)CC[C@]2(C)[C@H]2CC[C@@]3(C)[C@@H](CC[C@@]34CCC(=O)O4)[C@H]12 [spironolactone] | 3 | – | –
49 | Nc1ccc(S(=O)(=O)Nc2ncccn2)cc1 [sulfadiazine] | 3 | – | –
50 | Cc1noc(NS(=O)(=O)c2ccc(N)cc2)c1C [sulfafurazole] | 2 | – | –
51 | Cc1cc(NS(=O)(=O)c2ccc(N)cc2)no1 [sulfamethoxazole] | 2 | – | –
52 | C[C@]12CC[C@H]3[C@@H](CCC4=CC(=O)CC[C@@]43C)[C@@H]1CC[C@@H]2O [testosterone] | – | – | Critical value mole ratio [1]: 4
53 | NC(=O)CCCCC1CCSS1 (centres unmarked) [thioctamide] | – | 7 | –
54 | COc1cc(C=O)ccc1O [vanillin] | – | 9 | –
55 | Artemoter | 8 | – | –
56 | Medicamycin | 8 | – | –
57 | Oryzanol | – | 38 | –
